Results on 13 molecules are retold here after PMC10786919, “Design-rules for stapled peptides with in vivo activity and their application to Mdm2/X antagonists” (Nature Communications, 2024).

The term logD denotes lipophilicity at a set pH, counting ionised and neutral species. What is called pEC50 is −log10 of the EC50, conventionally taken in molar units. A high value points to a small EC50.

Each structure is given as a SMILES string. pEC50: −log10 of the molar value. Values after ≈ are worked out from the molar mass of the structure shown. Positions of bridges follow the written chain, without caps; N, C: chain ends. Non-standard residues stand in square brackets, D forms with d. Residues, ends and D or L forms follow the SMILES beside them. Lys(N3) = [N-]=[N+]=NCCCC[C@H](N)C(=O)O; hArg = N=C(N)NCCCC[C@H](N)C(=O)O; R8 = C=CCCCCCC[C@@](C)(N)C(=O)O; Cba = N[C@@H](CC1CCC1)C(=O)O; S5 = C=CCCC[C@](C)(N)C(=O)O; βAla = NCCC(=O)O

Data set [1] is described as follows: Experimental LogD (partition coefficient). The following applies: for logD: not stated, Partition Coeff LogD.
Data set [2] is described as follows: in vitro. The following applies: Nanoclick permeability assay EC50. The procedure, abridged:
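Azido-peptide permeability was read as loss of NanoBRET signal (donor 450 nm, acceptor 610 nm) after adding NanoBret618-azide at 10 μM final.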

Data set [3] can be described thus: physchem.
Data set [4] in a line: Lactate dehydrogenase (LDH) release assay. It counts as cell-based. The following applies: LDH: Cytotoxicity assay: EC50. The procedure, abridged: (§1)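 LDH release, fluorometric membrane-integrity read-out; HCT116 with stable p53-responsive β-lactamase reporter; 8000 cells/well; 0.5% DMSO final; geometric mean, n≥3 biological replicates.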
The nature of data set [5]: Solubility assay (kinetic solubility, PBS pH 7). Type of data set: physicochemical. The following applies: pH 7, PBS; for solubility kinetic: pH 7, aqueous buffer, kinetic from dmso stock, read-out: Solubility. The procedure, abridged: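 Values derive from peak-area ratios of sample versus a 100 µM standard, scaled by that standard's concentration.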
The test system of data set [6] is HCT116 cells. Description: Lactate dehydrogenase (LDH) release assay. Type of data set: cell-based. The procedure, abridged:
as §1

Take `CC(=O)N[C@@H](CCCCN=[N+]=[N-])C(=O)NCCC(=O)N[C@@H](CC(C)C)C(=O)N[C@H](C(=O)N[C@@H](Cc1ccccc1)C(=O)N[C@]1(C)CCCCCCC=CCCC[C@@](C)(C(=O)N[C@@H](CO)C(=O)N[C@@H](C)C(=O)N[C@@H](C)C(N)=O)NC(=O)[C@H](CC2CCC2)NC(=O)[C@@H]2CCCCNC(=O)CC[C@H](NC1=O)C(=O)N[C@@H](Cc1ccc(O)cc1)C(=O)N[C@@H](Cc1c[nH]c3ccccc13)C(=O)N[C@@H](C)C(=O)N2)[C@@H](C)O` [MP-001] (Ac-[Lys(N3)][βAla]LTF[R8]EYWAK[Cba][S5]SAA-NH2; staple 6-13; lactam 7-11): in data set [1], the logD was determined as 3.84. In data set [2], the cell entry EC50 amounted to 1.15 µM. The same molecule showed an EPSA in data set [3] of 173 A^2. In data set [4], this molecule gave a pEC50 of less than 4.29.
`CC(=O)N[C@@H](C)C(=O)N[C@@H](C)C(=O)N[C@@H](C)C(=O)N[C@@H](C)C(=O)N[C@@H](CC(C)C)C(=O)N[C@H](C(=O)N[C@@H](Cc1ccccc1)C(=O)N[C@]1(C)CCCCCCC=CCCC[C@@](C)(C(=O)N[C@@H](CO)C(=O)N[C@@H](C)C(=O)N[C@@H](C)C(N)=O)NC(=O)[C@H](CC2CCC2)NC(=O)[C@H](CCC(N)=O)NC(=O)[C@H](C)NC(=O)[C@H](Cc2c[nH]c3ccccc23)NC(=O)[C@H](Cc2ccc(O)cc2)NC(=O)[C@H](CCC(=O)O)NC1=O)[C@@H](C)O` [MP-360]: the solubility kinetic in data set [5] came to 24.7 µM (≈ 50.1 µg/mL). The logD in data set [1] turned out to be 3.24. In addition, in data set [3], the EPSA amounted to 219 A^2. The molecule also showed a negative-log EC50 (pEC50) in data set [4] of less than 4.30. In addition, the “LDH: Cytotoxicity assay: % Effect” value in data set [6] is reported as 2.492%.
On the same counts, the results for `CC(=O)N(C)CC(=O)N(C)CC(=O)N(C)CC(=O)N(C)CC(=O)N[C@@H](CC(C)C)C(=O)N[C@H](C(=O)N[C@@H](Cc1ccccc1)C(=O)N[C@]1(C)CCCCCCC=CCCC[C@@](C)(C(=O)N[C@@H](CO)C(=O)N[C@@H](C)C(=O)N[C@@H](C)C(N)=O)NC(=O)[C@H](CC2CCC2)NC(=O)[C@H](CCC(N)=O)NC(=O)[C@H](C)NC(=O)[C@H](Cc2c[nH]c3ccccc23)NC(=O)[C@H](Cc2ccc(O)cc2)NC(=O)[C@H](CCC(=O)O)NC1=O)[C@@H](C)O` [MP-361] are 70.7 µM (≈ 143 µg/mL), 2.52, 212 A^2, less than 4.30 and 2.48%.
With `CC(=O)N[C@@H](CC(C)C)C(=O)N[C@H](C(=O)N[C@@H](Cc1ccccc1)C(=O)N[C@]1(C)CCCCCCC=CCCC[C@@](C)(C(=O)N[C@@H](CO)C(=O)N[C@@H](C)C(=O)N[C@@H](C)C(N)=O)NC(=O)[C@H](CC2CCC2)NC(=O)[C@H](CC(C)C)NC(=O)[C@H](CCC(N)=O)NC(=O)[C@H](C)NC(=O)[C@H](Cc2ccc(O)cc2)NC(=O)[C@H](CCC(=O)O)NC1=O)[C@@H](C)O` [MP-364] (Ac-LTF[R8]EYAQL[Cba][S5]SAA-NH2; staple 4-11), the Solubility result in data set [5] is listed as “Poorly Behaved”. Moreover, the “Partition Coeff LogD” value in data set [1] was “Poorly Behaved”. In data set [3], this molecule returned an EPSA of 196 A^2. In data set [4], this molecule showed a pEC50 of 4.80. The “LDH: Cytotoxicity assay: % Effect” value in data set [6] turned out to be 68.78%.
Turning to `CC(=O)N[C@H](C)C(=O)N[C@H](C)C(=O)N[C@H](C)C(=O)N[C@H](C)C(=O)N[C@@H](CC(C)C)C(=O)N[C@H](C(=O)N[C@@H](Cc1ccccc1)C(=O)N[C@]1(C)CCCCCCC=CCCC[C@@](C)(C(=O)N[C@@H](CO)C(=O)N[C@@H](C)C(=O)N[C@@H](C)C(N)=O)NC(=O)[C@H](CC2CCC2)NC(=O)[C@H](CCC(N)=O)NC(=O)[C@H](C)NC(=O)[C@H](Cc2c[nH]c3ccccc23)NC(=O)[C@H](Cc2ccc(O)cc2)NC(=O)[C@H](CCC(=O)O)NC1=O)[C@@H](C)O` [MP-365], the solubility kinetic in data set [5] came to 76.3 µM (≈ 155 µg/mL). This molecule returned a logD in data set [1] of 2.6. The EPSA in data set [3] amounted to 210 A^2. Also, the negative logarithm of the EC50 (pEC50) in data set [4] is less than 4.30. The “LDH: Cytotoxicity assay: % Effect” value in data set [6] was -0.1776%.
As to `CC(=O)N[C@@H](CC(C)C)C(=O)N[C@H](C(=O)N[C@@H](Cc1ccccc1)C(=O)N[C@]1(C)CCCCCCC=CCCC[C@@](C)(C(=O)N[C@@H](CO)C(=O)N[C@@H](C)C(=O)N[C@@H](C)C(N)=O)NC(=O)[C@H](CC2CCC2)NC(=O)[C@H](CC(C)C)NC(=O)[C@H](CCC(N)=O)NC(=O)[C@@H](Cc2c[nH]c3ccccc23)NC(=O)[C@H](Cc2ccc(O)cc2)NC(=O)[C@H](CCC(=O)O)NC1=O)[C@@H](C)O` [MP-594], the solubility kinetic in data set [5] was 11 µM (≈ 19.7 µg/mL). The molecule further showed a logD in data set [1] of 2.83. The same molecule registered an EPSA in data set [3] of 203 A^2. The molecule further showed a pEC50 in data set [4] of 4.83. The “LDH: Cytotoxicity assay: % Effect” value in data set [6] is listed as 35.22%.
On the same counts, the results for `CC(=O)N[C@@H](CC(C)C)C(=O)N[C@H](C(=O)N[C@@H](C)C(=O)N[C@]1(C)CCCCCCC=CCCC[C@@](C)(C(=O)N[C@@H](CO)C(=O)N[C@@H](C)C(=O)N[C@H](C)C(N)=O)NC(=O)[C@H](CC2CCC2)NC(=O)[C@H](CC(C)C)NC(=O)[C@H](CCC(N)=O)NC(=O)[C@H](Cc2c[nH]c3ccccc23)NC(=O)[C@H](Cc2ccc(O)cc2)NC(=O)[C@H](CCC(=O)O)NC1=O)[C@@H](C)O` [MP-671] (Ac-LTA[R8]EYWQL[Cba][S5]SA[dA]-NH2; staple 4-11) are 74.3 µM (≈ 127 µg/mL), 2.27, 199 A^2, less than 4.30 and 3.06%.
In the same order, the values of `CC(=O)N[C@@H](CC(C)C)C(=O)N[C@H](C(=O)N[C@@H](Cc1ccccc1)C(=O)NC(C)(C)C(=O)N[C@@H](CCC(=O)O)C(=O)N[C@@H](Cc1ccc(O)cc1)C(=O)N[C@@H](Cc1c[nH]c2ccccc12)C(=O)N[C@H](CCC(N)=O)C(=O)N[C@@H](CC(C)C)C(=O)N[C@@H](CC1CCC1)C(=O)NC(C)(C)C(=O)N[C@@H](CO)C(=O)N[C@@H](C)C(=O)N[C@@H](C)C(N)=O)[C@@H](C)O` [MP-786] are 170 µM (≈ 283 µg/mL), 1.99, 187 A^2, less than 4.30 and 7.785%.
Consider `CC(=O)N[C@H](CC(C)C)C(=O)N[C@H](C(=O)N[C@@H](Cc1ccccc1)C(=O)NC(C)(C)C(=O)N[C@@H](CCC(=O)O)C(=O)N[C@@H](Cc1ccc(O)cc1)C(=O)N[C@@H](Cc1c[nH]c2ccccc12)C(=O)N[C@@H](CCC(N)=O)C(=O)N[C@@H](CC(C)C)C(=O)N[C@@H](CC1CCC1)C(=O)NC(C)(C)C(=O)N[C@@H](CO)C(=O)N[C@@H](C)C(=O)N[C@@H](C)C(N)=O)[C@@H](C)O` [MP-787], for which the solubility kinetic in data set [5] is 24 µM (≈ 40 µg/mL). In data set [1], this molecule showed a logD of 2.16. Further, the EPSA in data set [3] was found to be 190 A^2. The molecule further showed a negative logarithm of the EC50 (pEC50) in data set [4] of less than 4.30. In addition, in data set [6], the “LDH: Cytotoxicity assay: % Effect” value was determined as 4.125%.
With `CC(=O)N[C@@H](CC(C)C)C(=O)N[C@H](C(=O)N[C@@H](Cc1ccccc1)C(=O)NC(C)(C)C(=O)N[C@@H](CCC(=O)O)C(=O)N[C@@H](Cc1ccc(O)cc1)C(=O)N[C@@H](Cc1c[nH]c2ccccc12)C(=O)N[C@@H](CCC(N)=O)C(=O)N[C@H](CC(C)C)C(=O)N[C@@H](CC1CCC1)C(=O)NC(C)(C)C(=O)N[C@@H](CO)C(=O)N[C@@H](C)C(=O)N[C@@H](C)C(N)=O)[C@@H](C)O` [MP-788], the solubility kinetic in data set [5] turned out to be 83.5 µM (≈ 139 µg/mL). For the same molecule, the logD in data set [1] is 2.06. Moreover, the EPSA in data set [3] is 196 A^2. For the same molecule, in data set [4], the pEC50 was less than 4.30. In data set [6], the “LDH: Cytotoxicity assay: % Effect” value is on record as 8.3%.
On the same counts, the results for `CC(=O)N[C@@H](CC(C)C)C(=O)N[C@H](C(=O)N[C@@H](Cc1ccccc1)C(=O)NC(C)(C)C(=O)N[C@H](CCC(=O)O)C(=O)N[C@@H](Cc1ccc(O)cc1)C(=O)N[C@@H](Cc1c[nH]c2ccccc12)C(=O)N[C@@H](CCC(N)=O)C(=O)N[C@@H](CC(C)C)C(=O)N[C@@H](CC1CCC1)C(=O)NC(C)(C)C(=O)N[C@@H](CO)C(=O)N[C@@H](C)C(=O)N[C@@H](C)C(N)=O)[C@@H](C)O` [MP-789] are 28 µM (≈ 46.6 µg/mL), 2.12, 196 A^2, less than 4.30 and 5.465%.
For `CC(=O)N[C@@H](CCCCN=[N+]=[N-])C(=O)NCCC(=O)N[C@@H](CCCCNC(=N)N)C(=O)N[C@H](C(=O)N[C@@H](Cc1ccccc1)C(=O)N[C@]1(C)CCCCCCC=CCCC[C@@](C)(C(=O)N[C@@H](CO)C(=O)N[C@@H](C)C(=O)N[C@@H](C)C(N)=O)NC(=O)[C@H](CC2CCC2)NC(=O)[C@H](CCC(N)=O)NC(=O)[C@H](C)NC(=O)[C@H](Cc2c[nH]c3ccccc23)NC(=O)[C@H](Cc2ccc(O)cc2)NC(=O)[C@H](CCC(=O)O)NC1=O)[C@@H](C)O` [MP-6896] (Ac-[Lys(N3)][βAla][hArg]TF[R8]EYWAQ[Cba][S5]SAA-NH2; staple 6-13), the solubility kinetic in data set [5] came out at 2.5 µM (≈ 5.07 µg/mL). In data set [1], the logD is 2.79. The cell entry EC50 in data set [2] worked out at 1.13 µM. Besides, the EPSA in data set [3] was 203 A^2.
Regarding `CC(=O)N[C@H](CC(C)C)C(=O)N[C@H](C(=O)N[C@@H](Cc1ccccc1)C(=O)N[C@]1(C)CCCCCCC=CCCC[C@@](C)(C(=O)N[C@@H](CO)C(=O)N[C@H](C)C(=O)N[C@@H](C)C(N)=O)NC(=O)[C@H](CC2CCC2)NC(=O)[C@H](CC(C)C)NC(=O)[C@H](CCC(N)=O)NC(=O)[C@H](Cc2c[nH]c3ccccc23)NC(=O)[C@H](Cc2ccc(O)cc2)NC(=O)[C@H](CCC(=O)O)NC1=O)[C@@H](C)O` [MP-7201], the solubility kinetic in data set [5] worked out at 19 µM (≈ 34 µg/mL). For the same molecule, in data set [1], the logD was found to be 2.8. The EPSA in data set [3] is 191 A^2. Besides, the pEC50 in data set [4] is less than 4.30. In data set [6], the “LDH: Cytotoxicity assay: % Effect” value came to 4.51%.
